Test results published in the supplement of paper PMC10011410.
± gives the standard deviation of the averaged measurements.

Assays:
[1] = tested on: U-2 OS; experiment: cell viability (CellTiter-Glo) relative to DMSO (% of control); higher = more viable; conditions: 24 h
Procedure: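 Cell viability of U-2 OS cells by CellTiter-Glo after 24 h compound treatment at 5, 10 and 20 uM (some at 40 and 80 uM), measured in parallel with the glutathione assay, as percent of DMSO control. Five technical replicate plates, averaged.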

[2] = tested on: U-2 OS; experiment: AUC of culture confluence over time (live-cell imaging) (AUC (confluence % x time)); higher = more confluent culture (less growth inhibition)
Method in brief: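 Reported values are areas under curves of confluence against time, recorded by live-cell imaging of U-2 OS cells. Cells in F-12K medium with 10% FBS, seeded at 750 per well in 384-well plates, were treated by pin tool 24 h later, most compounds at 20, 10 and 5 μM with 0.2% DMSO. Imaging at 37 °C took place every 4 h for up to 60 h.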

[3] = tested on: U-2 OS; experiment: intracellular GSH:GSSG ratio (calculated); higher = more reduced glutathione pool; conditions: 24 h
Procedure: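 Intracellular glutathione in U-2 OS cells after 24 h compound treatment at 5, 10 and 20 uM (some at 40 and 80 uM). Total glutathione and GSSG were measured with the GSH/GSSG-Glo kit, and the GSH:GSSG ratio was calculated. Mean of five technical replicate plates.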

[4] = tested on: U-2 OS; experiment: relative cell count vs DMSO (cell painting) (fraction of DMSO control); higher = more cells remaining (less cytotoxic); conditions: 24 h
Method in brief: (§1)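 Using 384-well plates holding about 1,500 U-2 OS cells per well, treatment was applied by pin tool for 24 h at 37 °C, generally at six 2-fold concentrations ranging from 20 μM to 625 nM. Staining with MitoTracker, concanavalin A, phalloidin, wheat germ agglutinin, Hoechst and SYTO 14 preceded Opera Phenix imaging and CellProfiler feature extraction against DMSO cells on the same plate. Activity score and cell count are both referenced to DMSO wells, the former as a Mahalanobis distance. Four replicate plates were averaged for every value.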

[5] = tested on: U-2 OS; experiment: cell painting activity score (Mahalanobis distance from DMSO wells); higher = stronger morphological phenotype; conditions: 24 h
Method in brief: as §1

[6] = tested on: U-2 OS; experiment: total intracellular glutathione (GSH + GSSG) relative to DMSO (% of control); higher = more glutathione; conditions: 24 h
Procedure: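 Total intracellular glutathione (GSH + GSSG) in U-2 OS cells by GSH/GSSG-Glo after 24 h compound treatment at 5, 10 and 20 uM (some at 40 and 80 uM), as percent of DMSO control. Five technical replicate plates, averaged.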

Row | Compound | cell viability ([1]; 5 µM) | cell viability ([1]; 10 µM) | cell viability ([1]; 20 µM) | AUC of culture confluence over time ([2]; 5 µM) | AUC of culture confluence over time ([2]; 10 µM) | AUC of culture confluence over time ([2]; 20 µM) | intracellular GSH:GSSG ratio ([3]; 5 µM) | intracellular GSH:GSSG ratio ([3]; 10 µM) | intracellular GSH:GSSG ratio ([3]; 20 µM) | relative cell count ([4]; 0.625 µM) | relative cell count ([4]; 1.25 µM) | relative cell count ([4]; 2.5 µM) | relative cell count ([4]; 5 µM) | relative cell count ([4]; 10 µM) | relative cell count ([4]; 20 µM) | cell painting activity score ([5]; 0.625 µM) | cell painting activity score ([5]; 1.25 µM) | cell painting activity score ([5]; 2.5 µM) | cell painting activity score ([5]; 5 µM) | cell painting activity score ([5]; 10 µM) | cell painting activity score ([5]; 20 µM) | total intracellular glutathione ([6]; 5 µM) | total intracellular glutathione ([6]; 10 µM) | total intracellular glutathione ([6]; 20 µM) | cell viability ([1]; 40 µM) | cell viability ([1]; 80 µM) | AUC of culture confluence over time ([2]; 40 µM) | AUC of culture confluence over time ([2]; 80 µM) | intracellular GSH:GSSG ratio ([3]; 40 µM) | intracellular GSH:GSSG ratio ([3]; 80 µM) | relative cell count ([4]; 40 µM) | relative cell count ([4]; 80 µM) | cell painting activity score ([5]; 40 µM) | cell painting activity score ([5]; 80 µM) | total intracellular glutathione ([6]; 40 µM) | total intracellular glutathione ([6]; 80 µM)
1 | O=C1C=CC(=O)N1c1ccccc1 | 81.7 ± 12 | 14.3 ± 4.6 | 4.32 ± 3.1 | 13.1 | 14.2 | 13.5 | 20.1 | 4.06 | 17.8 | 1.02 | 1.06 | 0.8 | 0.602 | 0.224 | 0.317 | 4.85 | 4.24 | 9.29 | 14.7 | 19.6 | 16.3 | 114 ± 9.5 | 23.6 ± 7.2 | 14.3 ± 6.1 | – | – | – | – | – | – | – | – | – | – | – | –
2 | Cl.Cl.O=C(O)Cn1nnc(-c2ccc(CN(CCCCOc3ccc(CN4CCCC4)cc3)CCc3ccccc3)cc2)n1 | 96.5 ± 5.3 | 100 ± 3.5 | 98.8 ± 6.4 | 48.1 | 49 | 47.5 | 20.2 | 19.8 | 15.4 | 1.2 | 1.1 | 1.12 | 1.13 | 1.14 | 1.01 | 4.83 | 5.3 | 7.08 | 6.29 | 6.41 | 11.1 | 99.4 ± 2.1 | 97 ± 3.3 | 95.5 ± 4.5 | 88.9 ± 11 | 30.9 ± 15 | 19.9 | 12.3 | 14.3 | 14 | 0.376 | 0.0195 | 11.5 | 32 | 96.7 ± 2.5 | 72.7 ± 5.7
3 | O=C1CC(Nc2ccccc2)C(=O)N1Cc1ccccc1 (stereo not drawn) | 116 ± 4.3 | 106 ± 4.3 | 100 ± 4.4 | 48 | 38.3 | 43.1 | – | 33.5 | 34.3 | 1.01 | 1.03 | 1.03 | 0.984 | 0.96 | 1.05 | 3.91 | 3.72 | 3.99 | 4.03 | 4.46 | 3.59 | 92.2 ± 3.2 | 94.5 ± 4.7 | 102 ± 6.3 | – | – | – | – | – | – | – | – | – | – | – | –
